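Five concentrations, 48 hours, 96-well plates. At the GI50, growth is halved. TGI: total growth inhibition.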
Columns and labels:
Test in all cases: NCI anticancer screen, dose series, 48 h
[1] = tested on: NCI-H23 lung
[2] = tested on: LOX IMVI melanoma
[3] = tested on: SK-OV-3 ovarian
[4] = tested on: CAKI-1 renal
[5] = tested on: RPMI-8226 leukemia
[6] = tested on: DU-145 prostate
[7] = tested on: EKVX NSCLC
[8] = tested on: SF-268 CNS
[9] = tested on: SR leukemia
[10] = tested on: PC-3 prostate
[11] = tested on: SW-620 colon
[12] = tested on: ACHN renal
[13] = tested on: NCI-H460 lung
[14] = tested on: A549 NSCLC
[15] = tested on: OVCAR-5 ovarian
[16] = tested on: NCI/ADR-RES ovarian
[17] = tested on: OVCAR-8 ovarian
[18] = tested on: SNB-19 CNS
[19] = tested on: SF-539 CNS
[20] = tested on: K-562 leukemia
[21] = tested on: OVCAR-3 ovarian
[22] = tested on: SK-MEL-5 melanoma
[23] = tested on: KM12 colon
[24] = tested on: UACC-62 melanoma
[25] = tested on: HOP-92 NSCLC
[26] = tested on: NCI-H522 lung
[27] = tested on: T-47D breast
[28] = tested on: MDA-MB-468 breast
[29] = tested on: BT-549 breast
[30] = tested on: HOP-62 NSCLC
[31] = tested on: MDA-MB-435
[32] = tested on: SF-295 CNS
[33] = tested on: 786-0 renal
[34] = tested on: HCC-2998 colon
[35] = tested on: HCT-116 colon
[36] = tested on: UACC-257 melanoma
[37] = tested on: A498 renal
[38] = tested on: HCT-15 colon
[39] = tested on: HL-60(TB) leukemia
[40] = tested on: M14 melanoma
[41] = tested on: COLO 205 colon
[42] = tested on: CCRF-CEM leukemia
[43] = tested on: TK-10 renal
[44] = tested on: HS 578T breast
[45] = tested on: OVCAR-4 ovarian
[46] = tested on: MALME-3M melanoma
[47] = tested on: IGROV1 ovarian
[48] = tested on: SN12C renal
[49] = tested on: MOLT-4 leukemia
[50] = tested on: RXF 393 renal
[51] = tested on: HT29 colon
[52] = tested on: U251 CNS
[53] = tested on: NCI-H226 lung
[54] = tested on: MCF7 breast
[55] = tested on: SK-MEL-28 melanoma

`Clc1ccc(-c2nc3c4c(-c5ccccc5)c(-c5ccccc5)n(Cc5ccccc5)c4ncn3n2)cc1` showed a GI50 [1] of 6.88 µM, a TGI [1] of 44.4 µM and a GI50 [2] of 10.9 µM. It also gave a TGI [2] of 25.2 µM, a GI50 [3] of 12.8 µM and a TGI [3] of 46.7 µM. For the same compound, the GI50 [4] was 21.4 µM, the TGI [4] was 89.2 µM and the GI50 [5] was 2.46 µM. The TGI [5] was 8.69 µM, the GI50 [6] was 19.1 µM and the TGI [6] was over 100 µM. The GI50 [7] was 4.6 µM, the TGI [7] was 48.7 µM and the GI50 [8] was 12.2 µM. The TGI [8] was over 100 µM, the GI50 [9] was 13 µM and the TGI [9] was 36.5 µM. For the same compound, the GI50 [10] was 3.51 µM, the TGI [10] was 97.3 µM and the GI50 [11] was 12.5 µM. For the same compound, the TGI [11] was over 100 µM, the GI50 [12] was 20.8 µM and the TGI [12] was 79.7 µM. For the same compound, the GI50 [13] was 8.24 µM, the TGI [13] was 35.4 µM and the GI50 [14] was 20.6 µM. It also gave a TGI [14] of over 100 µM, a GI50 [15] of 21.3 µM and a TGI [15] of 90.3 µM. The GI50 [16] was 24.2 µM, the TGI [16] was 97 µM and the GI50 [17] was 12.5 µM. It also gave a TGI [17] of over 100 µM, a GI50 [18] of 4.8 µM and a TGI [18] of over 100 µM. It also gave a GI50 [19] of 15.8 µM, a TGI [19] of 33.5 µM and a GI50 [20] of 4.84 µM. For the same compound, the TGI [20] was over 100 µM, the GI50 [21] was 4.76 µM and the TGI [21] was over 100 µM. For the same compound, the GI50 [22] was 3.26 µM, the TGI [22] was 12.9 µM and the GI50 [23] was 5.17 µM. It also gave a TGI [23] of 36.5 µM, a GI50 [24] of 3.59 µM and a TGI [24] of 15.2 µM. It also gave a GI50 [25] of 1.9 µM, a TGI [25] of 9.53 µM and a GI50 [26] of 5.95 µM. For the same compound, the TGI [26] was 43.7 µM, the GI50 [27] was 3.5 µM and the TGI [27] was 62.5 µM. It also gave a GI50 [28] of 2.84 µM, a TGI [28] of 10.3 µM and a GI50 [29] of 4.35 µM. It also gave a TGI [29] of 22.5 µM, a GI50 [30] of 16.1 µM and a TGI [30] of 38.4 µM. It also gave a GI50 [31] of 4.92 µM, a TGI [31] of 71.3 µM and a GI50 [32] of 11.5 µM. For the same compound, the TGI [32] was 25.7 µM, the GI50 [33] was 12.6 µM and the TGI [33] was 93.3 µM. For the same compound, the GI50 [34] was 6.37 µM, the TGI [34] was 39.7 µM and the GI50 [35] was 3.53 µM. It also gave a TGI [35] of 35.2 µM, a GI50 [36] of 4.17 µM and a TGI [36] of 34.2 µM. It also gave a GI50 [37] of 23 µM, a TGI [37] of 63 µM and a GI50 [38] of 20.5 µM. The TGI [38] was over 100 µM, the GI50 [39] was 3.08 µM and the TGI [39] was 15.5 µM. The GI50 [40] was 12 µM, the TGI [40] was 77.7 µM and the GI50 [41] was 4.66 µM. For the same compound, the TGI [41] was 16.8 µM, the GI50 [42] was 9.15 µM and the TGI [42] was 51 µM. For the same compound, the GI50 [43] was 19 µM, the TGI [43] was over 100 µM and the GI50 [44] was 9.38 µM. The TGI [44] was 38.2 µM, the GI50 [45] was 10.3 µM and the TGI [45] was over 100 µM. The GI50 [46] was 2.75 µM, the TGI [46] was 9.5 µM and the GI50 [47] was 8.02 µM. For the same compound, the TGI [47] was 85.8 µM, the GI50 [48] was 7.73 µM and the TGI [48] was 46 µM. It also gave a GI50 [49] of 11.7 µM, a TGI [49] of 58.2 µM and a GI50 [50] of 14.2 µM. For the same compound, the TGI [50] was 39.9 µM, the GI50 [51] was 6.18 µM and the TGI [51] was over 100 µM. It also gave a GI50 [52] of 4.58 µM, a TGI [52] of 33.5 µM and a GI50 [53] of 16.3 µM. For the same compound, the TGI [53] was 56.9 µM, the GI50 [54] was 8.31 µM and the TGI [54] was 61.8 µM. The GI50 [55] was 5.33 µM and the TGI [55] was 47.1 µM.
